This note sets out measurements from ChEMBL document CHEMBL6134842, “Acetal functionalized iminosugars for targeting β-glucocerebrosidase modulation” (Eur J Med Chem, 2025).

Data set [1] deals with T1, Lysosomal acid glucosylceramidase (Homo sapiens) (UniProt P04062).
T1 sequence (whole entry): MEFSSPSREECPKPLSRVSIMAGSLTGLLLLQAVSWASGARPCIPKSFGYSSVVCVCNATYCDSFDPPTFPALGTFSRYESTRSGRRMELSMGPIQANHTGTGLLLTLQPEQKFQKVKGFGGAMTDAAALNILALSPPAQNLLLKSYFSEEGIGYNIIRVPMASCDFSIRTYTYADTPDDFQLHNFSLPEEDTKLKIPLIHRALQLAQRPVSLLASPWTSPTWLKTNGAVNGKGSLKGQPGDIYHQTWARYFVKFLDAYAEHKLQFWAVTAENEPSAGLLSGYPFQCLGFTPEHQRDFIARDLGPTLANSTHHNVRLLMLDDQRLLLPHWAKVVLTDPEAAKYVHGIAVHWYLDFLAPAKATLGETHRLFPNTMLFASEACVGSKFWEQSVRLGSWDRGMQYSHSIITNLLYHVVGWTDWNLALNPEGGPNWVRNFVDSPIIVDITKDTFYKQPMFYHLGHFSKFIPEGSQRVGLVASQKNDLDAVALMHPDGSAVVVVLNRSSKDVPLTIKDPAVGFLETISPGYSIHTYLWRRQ
The experiment in a line: Inhibition of lysosomal GCase in human leucocytes using 4-methylumbelliferyl-beta-D-glucopyranoside as substrate at 1 mM measured 36 hrs by fluorescence based assay relative to control. The following applies: Leucocyte. In kind it is cell-based.

The target in data set [2] is T1, Lysosomal acid glucosylceramidase (Homo sapiens). The experiment in a line: Inhibition of lysosomal GCase in human leucocytes using 4-methylumbelliferyl-beta-D-glucopyranoside as substrate at 1 mM measured immediately by fluorescence based assay relative to control. The data set is classed as cell-based. The following applies: Leucocyte.
In data set [3] the test system is Lysosomal acid glucosylceramidase (Homo sapiens), P04062 [UNDEFINED MUTATION]. The data set is described as follows: Modulation of GCase N370S/RecNcil mutant in Gaucher patient-derived human fibroblasts using 4-methylumbelliferyl beta-D-glucopyranoside as substrate assessed as GCase rescue at 10 to 100 uM preincubated for 4 days followed by compound washout and substrate addition measured after 2 hrs by fluorescence based intact cell enzyme assay. Conditions: Fibroblast, dose 10-100 µM, time 4.0 day.

In data set [4] the test system is T2, Lysosomal acid glucosylceramidase (Homo sapiens), P04062 [L483P].
T2 sequence (whole entry): T1 sequence (whole entry) with L483P
The data set is described as follows: Modulation of GCase L444P/L444P mutant in Gaucher patient-derived human fibroblasts assessed as fold increase in GCase rescue at 50 uM incubated for 4 days by fluorescence based lysed cell assay relative to control. The following applies: Fibroblast, filed as modulator, time 4.0 day.

Data set [5] in a line: Stability of compound at pH 5.8 assessed as compound remaining measured after 1 hr by 1H NMR spectroscopy. In kind it is physicochemical. The following applies: buffer, read-out: Stability.
The nature of data set [6]: Stability of compound at pH 7 assessed as compound remaining measured after 4 days by 1H NMR spectroscopy. In kind it is physicochemical. Conditions: buffer, time 4 day, read-out: Stability.
Data set [7] is described as follows: Antioxidant activity assessed as DPPH radical scavenging activity at 200 umol measured after 10 mins relative to control. In kind it is functional. The following applies: dose 200.0 µmol.
The target of data set [8] is T1, Lysosomal acid glucosylceramidase (Homo sapiens). The experiment in a line: Inhibition of lysosomal GCase in human leucocytes using 4-methylumbelliferyl-beta-D-glucopyranoside as substrate at 1 mM measured 24 hrs by fluorescence based assay relative to control. The following applies: Leucocyte. The data set is classed as cell-based.
Data set [9] shares this target. The experiment in a line: Inhibition of lysosomal GCase in human leucocytes using 4-methylumbelliferyl-beta-D-glucopyranoside as substrate at 1 mM measured after 12 hrs by fluorescence based assay relative to control. In kind it is cell-based. Conditions: Leucocyte.
Data set [10] has as its system Lysosomal acid glucosylceramidase (Homo sapiens), P04062 [UNDEFINED MUTATION]. The experiment in a line: Modulation of GCase N370S/RecNcil mutant in Gaucher patient-derived human fibroblasts assessed as fold increase in GCase rescue at 100 uM incubated for 4 days by fluorescence based lysed cell assay relative to control. Conditions: Fibroblast, filed as modulator, time 4.0 day.

Data set [11] deals with T1, Lysosomal acid glucosylceramidase (Homo sapiens). The experiment in a line: Inhibition of lysosomal GCase in human leucocytes using 4-methylumbelliferyl-beta-D-glucopyranoside as substrate at 1 mM incubated for 1 hr by fluorescence based assay relative to control. The data set is classed as cell-based. The following applies: Leucocyte.
Data set [12] relates to T2, Lysosomal acid glucosylceramidase (Homo sapiens), P04062 [L483P]. The data set is described as follows: Modulation of GCase L444P/L444P mutant in Gaucher patient-derived human fibroblasts using 4-methylumbelliferyl beta-D-glucopyranoside as substrate assessed as fold increase in GCase rescue at 30 uM preincubated for 4 days followed by compound washout and substrate addition measured after 2 hrs by fluorescence based intact cell enzyme assay relative to control. The following applies: Fibroblast, filed as modulator, time 4.0 day.

Data set [13] has the same test system. The data set is described as follows: Modulation of GCase L444P/L444P mutant in Gaucher patient-derived human fibroblasts assessed as fold increase in GCase rescue at 100 uM incubated for 4 days by fluorescence based lysed cell assay relative to control. The following applies: Fibroblast, filed as modulator, time 4.0 day.
Data set [14] deals with T1, Lysosomal acid glucosylceramidase (Homo sapiens). The data set is described as follows: Non-competitive inhibition of lysosomal GCase in human leucocytes using 4-methylumbelliferyl-beta-D-glucopyranoside as substrate assessed as unchanged Km incubated for 1 hr by fluorescence based assay. In kind it is cell-based. The following applies: Leucocyte.
The nature of data set [15]: Stability of compound at pH 5.8 assessed as compound hydrolysis measured after 6 days by 1H NMR spectroscopy. The following applies: buffer, pH 5.8, 144 h; time 6 day. The data set is classed as physicochemical.
In data set [16] the test system is Lysosomal acid glucosylceramidase (Homo sapiens), P04062 [UNDEFINED MUTATION]. The experiment in a line: Modulation of GCase N370S/RecNcil mutant in Gaucher patient-derived human fibroblasts using 4-methylumbelliferyl beta-D-glucopyranoside as substrate assessed as fold increase in GCase rescue at 30 uM preincubated for 4 days followed by compound washout and substrate addition measured after 2 hrs by fluorescence based intact cell enzyme assay relative to control. The following applies: Fibroblast, filed as modulator, time 4.0 day.

The target of data set [17] is T3, Lysosomal acid glucosylceramidase (Homo sapiens, UniProt P04062).
T3 sequence (P04062 whole entry): T1 sequence (whole entry)
The data set is described as follows: Non-competitive inhibition of lysosomal GCase in human leucocytes using 4-methylumbelliferyl-beta-D-glucopyranoside as substrate incubated for 1 hr by fluorescence based assay. The data set is classed as cell-based, Leucocyte.

In data set [18] the target is T1, Lysosomal acid glucosylceramidase (Homo sapiens). The experiment in a line: Non-competitive inhibition of lysosomal GCase in human leucocytes using 4-methylumbelliferyl-beta-D-glucopyranoside as substrate assessed as reduction in apparent Vmax incubated for 1 hr by fluorescence based assay. In kind it is cell-based. The following applies: Leucocyte.
Data set [19] has the same target. The experiment in a line: Inhibition of lysosomal GCase in human leucocytes using 4-methylumbelliferyl-beta-D-glucopyranoside as substrate incubated for 1 hr by Lineweaver-burk plot analysis. The data set is classed as cell-based. The following applies: Leucocyte.
In data set [20] the test system is T2, Lysosomal acid glucosylceramidase (Homo sapiens), P04062 [L483P]. The data set is described as follows: Modulation of GCase L444P/L444P mutant in Gaucher patient-derived human fibroblasts assessed as GCase rescue at 10 to 100 uM incubated for 4 days by fluorescence based lysed cell assay. Conditions: Fibroblast, dose 10-100 µM, time 4.0 day.
Data set [21] concerns Lysosomal acid glucosylceramidase (Homo sapiens), P04062 [UNDEFINED MUTATION]. The data set is described as follows: Modulation of GCase N370S/RecNcil mutant in Gaucher patient-derived human fibroblasts assessed as fold increase in GCase rescue at 10 uM incubated for 4 days by fluorescence based lysed cell assay relative to control. The following applies: Fibroblast, filed as modulator, time 4.0 day.

In data set [22] the test system is T2, Lysosomal acid glucosylceramidase (Homo sapiens), P04062 [L483P]. The data set is described as follows: Modulation of GCase L444P/L444P mutant in Gaucher patient-derived human fibroblasts assessed as GCase rescue at 10 uM incubated for 4 days by fluorescence based lysed cell assay. Conditions: Fibroblast, filed as modulator, time 4.0 day.
Data set [23] concerns Lysosomal acid glucosylceramidase (Homo sapiens), P04062 [UNDEFINED MUTATION]. The data set is described as follows: Modulation of GCase N370S/RecNcil mutant in Gaucher patient-derived human fibroblasts assessed as fold increase in GCase rescue at 20 uM incubated for 4 days by fluorescence based lysed cell assay relative to control. The following applies: Fibroblast, filed as modulator, time 4.0 day.

A short description of data set [24]: Antioxidant activity assessed as DPPH radical scavenging activity at 400 umol measured after 10 mins relative to control. The data set is classed as functional. The following applies: dose 400.0 µmol.
The test system of data set [25] is Lysosomal acid glucosylceramidase (Homo sapiens), P04062 [UNDEFINED MUTATION]. The experiment in a line: Modulation of GCase N370S/RecNcil mutant in Gaucher patient-derived human fibroblasts assessed as GCase rescue at 10 to 100 uM incubated for 4 days by fluorescence based lysed cell assay. The following applies: Fibroblast, dose 10-100 µM, time 4.0 day.
A short description of data set [26]: Antioxidant activity assessed as inhibition of DPPH radical scavenging activity measured after 10 mins relative to control. The data set is classed as functional.
Data set [27] relates to Lysosomal acid glucosylceramidase (Homo sapiens), P04062 [UNDEFINED MUTATION]. The data set is described as follows: Modulation of GCase N370S/RecNcil mutant in Gaucher patient-derived human fibroblasts assessed as fold increase in GCase rescue at 50 uM incubated for 4 days by fluorescence based lysed cell assay relative to control. The following applies: Fibroblast, filed as modulator, time 4.0 day.

SMILES strings stand for the structures. Numbering of substitutions follows the chain as printed. Activity calls are given as the source filed them. The rule behind the calls is not given here.

On to `COc1cc(/C=C/C2OC[C@H](CCN3C[C@@H](O)C(O)[C@H](O)C3)O2)ccc1O` (some centres not stated), for which the inhibition turned out to be 47% in [1]; 75% in data set [2]; 55% in data set [8]; 69% in [9]; 84% in data set [11]. In addition, the result in [3] was inactive. For the same molecule, the figures for the fold change (FC) in data set [4] and in data set [10] were 1.3 and 1.5, respectively. Further, the remaining at 1 h in [5] came out at 87%. The remaining at 96 h in [6] amounted to 72%. In addition, in [7], the Activity is 67%.
As to `OC1[C@H](O)CN(CC[C@H]2COC(c3ccc(Br)cc3)O2)C[C@H]1O` (some centres not stated), the fold change (FC) worked out at 1.26 in data set [12], 1.56 in data set [13], 1.46 in data set [16] and 1.83 in [10]. The inhibition in data set [1] was 76%; in data set [2], 80%; in [8], 80%; in data set [9], 77%; in data set [11] it was 75%; in data set [19] it was “Active; The Secondary Plot Was Concave Upward, Rather Than Linear, Thus Confirming That Inhibitory Effect Arises From The Binding Of More Than One Molecule Of Compound On Enzyme Surface; Not Attributable To A Cooperativity Phenomenon”. For the same molecule, the inhibition entry in data set [14] and in data set [18] was “Active” each time. For the same molecule, in [15], the Stability result is recorded as “Stable”. In [5], the remaining at 1 h was above 95%. For the same molecule, the remaining at 96 h in [6] was above 95%. In [17], this molecule gave a concentration for half-maximal inhibition (IC50) of 100 µM.
On to `O=[N+]([O-])c1ccc(C2OC[C@H](CCN3C[C@@H](O)C(O)[C@H](O)C3)O2)cc1` (some centres not stated), for which, in data set [20], the outcome was inactive. For the same molecule, the Stability entry in data set [15] is on record as “Stable”. For the same molecule, in [5], the remaining at 1 h was above 95%. In data set [6], the remaining at 96 h was above 95%. The IC50 in [17] was 300 µM. For the same molecule, in [10], the fold change (FC) worked out at 1.6. Further, in data set [11], the inhibition turned out to be 77%.
Consider `OC[C@H]1CNC[C@@H](O)[C@@H]1O`, for which the fold change (FC) in data set [21] amounted to 2.
As for `OC1[C@H](O)CN(CC[C@H]2COC(OCc3ccc(-c4ccccc4)cc3)O2)C[C@H]1O` (some centres not stated), the fold change (FC) worked out at 2.11 in data set [4], 2.03 in [22] and 1.61 in [10].
Consider `CCCCOC1OCC(CNC(=S)N2C[C@H](O)[C@@H](O)[C@H](O)[C@H]2CO)O1` (some centres not stated), for which, in [20], the result was inactive. Moreover, in data set [23], the fold change (FC) came out at 1.5.
Regarding `COc1cc(C2OC[C@H](CCN3C[C@@H](O)C(O)[C@H](O)C3)O2)ccc1O` (some centres not stated), the Activity in data set [24] was found to be 14%. The outcome in [20] and in [25] was inactive. The remaining at 1 h in data set [5] stood at 82%. In addition, in data set [6], the remaining at 96 h turned out to be 61%. Moreover, the inhibition in data set [11] was 70%.
With `Cc1cc(C(C)(C)C)c(O)c(C(C)(C)C)c1`, the inhibition in [26] was above 95%.
Regarding `CCCCCCCCCCCCOC1OC[C@H](CCN2C[C@@H](O)C(O)[C@H](O)C2)O1` (some centres not stated), the fold change (FC) in [4] worked out at 2.15; in data set [21] it was 2.06; in [22] it was 1.24; in data set [27], 1.92.
As for `Nc1c(Br)cc(Br)cc1CN[C@H]1CC[C@H](O)CC1`, the fold change (FC) in data set [4] was determined as 1.3.
